In patent publication US4720543A, “1a-7-substituted derivatives of mitomycin and uses thereof” (priority 1985, dated 1988):
Where “and” joins values, the source holds several entries; their conditions need not be identical. Equal values may be shown once. Entries after “also recorded” stand apart in the source; their conditions may differ. Read-outs that look alike come from different tables or passages of the source.

Key:
W3100 (E. coli) = assay: antibiotic activity, bacterial growth inhibition in culture; assay type: cell-based
Protocol: (§1) Bacteria were grown in a standard growth culture at pH 7.2. After the cultures were incubated at 37° C. overnight and diluted into fresh medium, controls and the test antibiotics dissolved in 0.3% hydroxy propylcellulose (HPC) were added at various concentrations and then reincubated overnight. The measure of antibiotic activity was determined by the amount of bacterial growth inhibition as shown by measurement of the optical density at 660 nm.

WP2s (E. coli) = assay: as above; assay type: cell-based
Protocol: as §1

P388 leukemia = assay: murine P388 leukemia antitumor activity; assay type: in vivo
Protocol: The murine P388 leukemia system, maintained intraperitoneally in female DBA/2 mice, was used to evaluate antitumor activity.
The P388 antileukemic activity of the test compound (M-TAG) was assessed by mean survival days, percentage increased life span or %ILS, and number of survivors after 45 days. The %ILS was calculated as follows:
%ILS=(T-C)/C×100 where T is the mean survival days of the treated mice and C is the mean survival days of the untreated mice

Ehrlich ascites = assay: murine Ehrlich ascites antitumor activity; assay type: in vivo
Protocol: The antitumor activity of M-TAG for the murine Ehrlich ascities tumor was also determined. Ehrlich ascites was maintained i.p. in female BALB/C mice. For antitumor studies, 1×10^7 Ehrlich ascites cells (in 0.10 ml) were implanted i.p. in male BD2F1 mice. Drug was administered i.p. (single LD10 dose) one day after tumor implantation.

[1] = tested on: peripheral leukocyte (WBC); assay: effects on peripheral leukocyte (WBC) count; assay type: in vivo, mice; details: LD10-range dose i.p., days 3, 4, 5, 6 and 10
Protocol: Comparative studies were performed with M-TAG and mitomycin C. Drug was dissolved in absolute ethanol, and then adjusted to a final concentration of 8% ethanol-92% sterile water. Blood samples obtained were diluted in 9.98 ml of Isoton (a neutral isotonic buffer solution) and counted in a Coulter counter after lysis with Zapoglobin (an enzyme solution which lyses red blood cells but not white blood cells). WBC counts are expressed as a percentage of values from control mice receiving drug vehicle only.

E. coli WP2s (λ) = details: for Induction of prophage, PFU/DISH: 24 hours
[2] = human bone marrow CFU-C assay; details: human, bone marrow cells
Protocol: (§2) The human bone marrow CFU-C assay measures human bone marrow cells committed to granulocyte-macrophage differentiation. This in vitro assay serves as a model for predicting the relative toxicity of an experimental drug on the granulocytic series of the bone marrow. […] Both drugs were dissolved in 0.5% DMSO, and nucleated human bone marrow cells were exposed in vitro (for 90 minutes at 37° C.) to varying concentrations of each drug. The cells were then plated in triplicate in 3% agar for the CFU-C assay, using GCT, (Giant Cell Tumor) extract (Gibco, Grand Island, N.Y.) as colony-stimulating factor.

human bone marrow cells = assay: human bone marrow CFU-C assay
Protocol: as §2

B16 melanoma = assay: murine B16 melanoma antitumor activity
From the text: Activity against the murine B16 melanoma is currently being determined.

[3] = toxic single doses in normal CD2F1 mice; details: for Deaths due to drug toxicity: up to 45 days
Protocol: Drug was administered intraperitoneally (i.p.) in a volume of 0.1 ml per 10 grams body weight.

[4] = Escherichia coli, 0.04 mcg/ml, 37° C. overnight, read-out: amount of bacterial growth inhibition (first figure)
[5] = Escherichia coli, 0.4 mcg/ml, 37° C. overnight, read-out: amount of bacterial growth inhibition (first figure)
[6] = Escherichia coli, 4.0 mcg/ml, 37° C. overnight, read-out: amount of bacterial growth inhibition (first figure)
[7] = Escherichia coli, 40 mcg/ml, 37° C. overnight, read-out: amount of bacterial growth inhibition (first figure)
[8] = Escherichia coli, 400 mcg/ml, 37° C. overnight, read-out: amount of bacterial growth inhibition (first figure)
[9] = approximate LD10 dose (M-TAG 250 mg/kg; mitomycin C 4 mg/kg), day one

CO[C@@]12[C@H](COC(N)=O)C3=C(C(=O)C(C)=C(N)C3=O)N1C[C@H]1[C@@H]2N1C(=S)N[C@@H]1O[C@H](COC(C)=O)[C@@H](OC(C)=O)[C@H](OC(C)=O)[C@H]1NC(C)=O [M-TAG, 1a(N-2-acetamido-3,4,6-tri-O-acetyl-2-deoxy-D-glucopyranosylthiocarbamoyl)-mitomycin C]
optical density at 660 nm (figure in parentheses) (W3100 (E. coli); 0.4 mcg/ml): 0.51 | optical density at 660 nm (figure in parentheses) (W3100 (E. coli); 4.0 mcg/ml): 0.30 | optical density at 660 nm (figure in parentheses) (W3100 (E. coli); 40 mcg/ml): 0.07 | optical density at 660 nm (figure in parentheses) (W3100 (E. coli); 400 mcg/ml): 0.04 | inhibition at 0.04 µg/mL (W3100 (E. coli); [4]): 33% | inhibition at 0.4 µg/mL (W3100 (E. coli); [5]): 31% | inhibition at 4 µg/mL (W3100 (E. coli); [6]): 50% | inhibition at 40 µg/mL (W3100 (E. coli); [7]): 86% | inhibition at 400 µg/mL (W3100 (E. coli); [8]): 92% | optical density at 660 nm (figure in parentheses) (WP2s (E. coli); 0.04 mcg/ml): 0.41 | optical density at 660 nm (figure in parentheses) (WP2s (E. coli); 0.4 mcg/ml): 0.29 | optical density at 660 nm (figure in parentheses) (WP2s (E. coli); 4.0 mcg/ml): 0.30 | optical density at 660 nm (figure in parentheses) (WP2s (E. coli); 40 mcg/ml): 0.12 | optical density at 660 nm (figure in parentheses) (WP2s (E. coli); 400 mcg/ml): 0.009 | inhibition at 0.04 µg/mL (WP2s (E. coli); [4]): 39% | inhibition at 0.4 µg/mL (WP2s (E. coli); [5]): 51% | inhibition at 4 µg/mL (WP2s (E. coli); [6]): 50% | inhibition at 40 µg/mL (WP2s (E. coli); [7]): 76% | inhibition at 400 µg/mL (WP2s (E. coli); [8]): 98% | overall survivals, M-TAG versus mitomycin C at LD10 dose (in words) (P388 leukemia; LD10 dose): no statistical difference in the overall survivals | % ILS (P388 leukemia; [9]): 85% | Mean Survival (P388 leukemia; [9]): 22 days | antitumor activity against murine P388 leukemia (in words) (P388 leukemia; mouse, in vivo): equivalent to that achieved with the parent mitomycin C | antitumor activity against murine Ehrlich ascites (in words) (Ehrlich ascites; mouse, in vivo): significant antitumor activity | % ILS (Ehrlich ascites; single approximate LD10 dose i.p. (M-TAG 250 mg/kg; mitomycin C 4 mg/kg), one day after implantation): 66% | Mean Survival (Ehrlich ascites; single approximate LD10 dose i.p., 250 mg/kg): 22.8 days | WBC depression / myelotoxicity (in words) [1]: no significant depression in WBC counts at all days tested; also recorded: no significant myelotoxicity as measured by WBC depression | maximum increase of phage titer over control (E. coli WP2s (λ)): 50-100% | Induction of prophage, PFU/DISH (E. coli WP2s (λ); 0.005 ug/ml): 148.5 PFU/DISH | Induction of prophage, PFU/DISH (E. coli WP2s (λ); 0.020 ug/ml): 152.5 PFU/DISH | Induction of prophage, PFU/DISH (E. coli WP2s (λ); 0.03125 ug/ml): 591.5 PFU/DISH | Induction of prophage, PFU/DISH (E. coli WP2s (λ); 0.125 ug/ml): 799.5 PFU/DISH | Induction of prophage, PFU/DISH (E. coli WP2s (λ); 0.500 ug/ml): 2535.0 PFU/DISH | Induction of prophage, PFU/DISH (E. coli WP2s (λ); 2.000 ug/ml): 5395.0 PFU/DISH | Induction of prophage, PFU/DISH (E. coli WP2s (λ); 3.125 ug/ml): 3516.5 PFU/DISH | Induction of prophage, PFU/DISH (E. coli WP2s (λ); 12.500 ug/ml): 461.5 PFU/DISH | Induction of prophage, PFU/DISH (E. coli WP2s (λ); 50.000 ug/ml): 169.0 PFU/DISH | Induction of prophage, PFU/DISH (E. coli WP2s (λ); 200.000 ug/ml): 14.5 PFU/DISH | activity at 1.5 h, 100 µM [2]: 66% | activity at 1.5 h, 500 µM [2]: 43% | activity at 1.5 h, 1000 µM [2]: < 20% | bone marrow toxicity compared to parent mitomycin-C (in words) (human bone marrow cells): reduced bone marrow toxicity | mice alive on day 20 (B16 melanoma; M-TAG 250 mg/kg or mitomycin C 4 mg/kg, i.p. day 1): 6 out of 10 | mice alive on day 10 (B16 melanoma; M-TAG 250 mg/kg or mitomycin C 4 mg/kg, i.p. day 1, all vehicle-control mice died): All | antitumor activity against murine B16 melanoma (in words) (B16 melanoma; mouse, in vivo): significant antitumor activity | Deaths due to drug toxicity ([3]; 250 mg/kg, single i.p. dose): 0/10 | Deaths due to drug toxicity ([3]; 275 mg/kg, single i.p. dose): 1/10 | Deaths due to drug toxicity ([3]; 300 mg/kg, single i.p. dose): 3/10 | difference in LD10 dose in mice relative to mitomycin C ([3]; molar basis): 30-40 fold | approximate LD10 dose (molar) ([3]; single i.p. dose): ~346 µmol/kg | LD10 dose ([3]; single i.p. dose toxic to 10% of normal mice): 275 mg/kg and 250 to 275 mg/kg and ~250 mg/kg
